The text below walks through data of US10822311B2, “Pyrimidines and variants thereof, and uses therefor” (Afferent Pharmaceuticals Inc., priority 2016, dated 2020).

Read-outs that look alike come from different tables or passages of the source.

The target of assay [1] is T1, human P2X3 receptor (homomeric P2X3 channels) (Homo sapiens, UniProt P56373).
T1 construct: expressed in transfected cells; host or cells: HEK293 human embryonic kidney cells (HEK-hP2X3)
T1 sequence (P56373 1-397): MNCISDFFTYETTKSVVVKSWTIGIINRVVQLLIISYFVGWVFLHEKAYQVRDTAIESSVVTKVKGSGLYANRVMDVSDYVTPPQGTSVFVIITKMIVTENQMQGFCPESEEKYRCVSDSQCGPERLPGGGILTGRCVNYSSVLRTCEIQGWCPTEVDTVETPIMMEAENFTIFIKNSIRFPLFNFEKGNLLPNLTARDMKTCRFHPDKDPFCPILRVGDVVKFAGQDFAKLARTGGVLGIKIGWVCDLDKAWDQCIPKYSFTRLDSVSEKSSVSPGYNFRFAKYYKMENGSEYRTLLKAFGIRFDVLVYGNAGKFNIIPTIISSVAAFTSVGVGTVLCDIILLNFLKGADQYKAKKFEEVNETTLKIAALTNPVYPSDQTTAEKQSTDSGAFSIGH
The assay is described as follows: FlexStation calcium fluorescence assay, homomeric P2X3 channels in HEK293 cells. The format is cell-based. Particulars: for IC50: HEK293 cells, hP2X3, agonist 1 μM α,β-meATP, read-out: Average pIC50 P2X3 (converted); for Selectivity P2X3/P2X2/3: Ratio=10^(P2X3pIC50−P2X2/3pIC50). How it is done:
(§1) 1321N1 human astrocytoma and HEK293 human embryonic kidney cells were stably transfected with human P2X2 and P2X3 receptor subunits to form heteromeric P2X2/3 channels and passaged in flasks. Additionally, HEK293 cells were stably transfected with human P2X3 receptor subunits to form homomeric P2X3 channels.
(§2) Approximately 24 hours before the FlexStation calcium fluorescence experiment, cells were released from their flasks, centrifuged and re-suspended in nutrient medium. The cells were aliquoted into black-wall, clear-bottom 96 well plates at a density of 25,000 cells per well and incubated overnight in a humidified, CO2-enriched (5%) atmosphere at 37° C.
(§3) On the day of the experiment, cells were washed with assay buffer (calcium- and magnesium-free Hank's balanced salt solution, 20 mM HEPES, 2 mM CaCl2; AB) and loaded with 4 μM Fluo-4 (P2X2/3) or Calcium 6 (Molecular Devices, according to manufacturer's instructions; P2X3) calcium-sensitive fluorescent dye in 100 μL AB.
(§4) After 1 hour of dye loading at 37° C., 1321N1-hP2X2/3 cells were washed two times with AB and test compound or vehicle added to each well in a total volume of 150 μL AB. HEK-hP2X3 cells were not washed because the Calcium 6 dye kit includes an extracellular dye that quenches unabsorbed Calcium 6 dye; test compound or vehicle were added directly to the assay plates to achieve the appropriate concentration of test compound in a total volume of 150 μL AB.
(§5) After 20 minutes incubation at room temperature and protected from light, the assay plates were loaded into the FlexStation microplate reader and baseline fluorescence measured with an excitation wavelength of 485 nm and emission wavelength readings centered at 525 nm (515 nm cut off).
(§6) The agonist was dispensed by the FlexStation during fluorescence measurement to construct agonist activation and antagonist inhibition curves. The final agonist concentration for inhibition was 1 μM α,β-meATP for P2X3 and 3 μM ATP for P2X2/3. Peak fluorescence was measured and curves generated using a four parameter nonlinear regression equation.

Assay [2] concerns the target T2, human P2X2/3 (heteromeric P2X2/3 channels) (Homo sapiens, UniProt P56373+Q9UBL9).
T2 construct: expressed in transfected cells; host or cells: 1321N1 human astrocytoma cells (1321N1-hP2X2/3)
T2 sequence (P56373 1-397): T1 sequence (P56373 1-397)
T2 sequence (Q9UBL9 1-471): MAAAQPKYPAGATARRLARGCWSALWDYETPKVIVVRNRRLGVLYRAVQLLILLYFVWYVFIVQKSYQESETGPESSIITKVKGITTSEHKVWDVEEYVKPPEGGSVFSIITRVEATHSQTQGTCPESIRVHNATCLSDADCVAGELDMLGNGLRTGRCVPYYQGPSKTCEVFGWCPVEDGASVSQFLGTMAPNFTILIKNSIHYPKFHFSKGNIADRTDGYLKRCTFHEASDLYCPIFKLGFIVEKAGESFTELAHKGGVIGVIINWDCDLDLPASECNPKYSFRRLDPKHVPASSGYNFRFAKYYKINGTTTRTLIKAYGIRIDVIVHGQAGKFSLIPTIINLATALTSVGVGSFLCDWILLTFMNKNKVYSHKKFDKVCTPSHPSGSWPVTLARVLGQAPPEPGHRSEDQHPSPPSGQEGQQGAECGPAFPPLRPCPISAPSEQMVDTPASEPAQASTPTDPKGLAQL
The experiment in a line: FlexStation calcium fluorescence assay, heteromeric P2X2/3 channels in 1321N1 cells. The format is cell-based. The settings on record: 1321N1 cells, hP2X2/3; agonist 3 μM ATP; highest concentration tested is 10 μM; read-out: Average pIC50 P2X2/3 (converted). The method, then: as §1, §2, §3, §4, §5, §6

The test system of assay [3] is P2X3. The experiment in a line: Mean pIC50s from Jahangir et al, P2X3. The settings on record: Table 3B, iodo; ratio from the Jahangir et al pIC50s. The class given is cell-based.
The subject of assay [4] is P2X3. Particulars: Table 3B, iodo; from Jahangir et al; cited from earlier work.
A further assay has as its target T3, P2X2/3 (Homo sapiens, UniProt P56373+Q9UBL9).
T3 sequence (P56373 1-397): T1 sequence (P56373 1-397)
T3 sequence (Q9UBL9 1-471): T2 sequence (Q9UBL9 1-471)
Particulars: Table 3B, iodo; from Jahangir et al; cited from earlier work.

Assay [5] has as its system P2X3. The settings on record: Table 3A, oxygen-linked; from Carter et al; cited from earlier work.
Assay [6] relates to P2X3. The assay is described as follows: Mean pIC50s from Carter et al, P2X3. The format is cell-based.

Consider `COc1cc(Oc2cnc(N)nc2NC2CC2)c(C(C)C)cc1OC` [Compound 32], for which, in assay [1], the IC50 is 794 nM and the “Selectivity P2X3/P2X2/3” value stood at 1.6. The IC50 in assay [2] is 1.26 µM.

Regarding `COc1cc(Oc2cnc(N)nc2NCC(C)C)c(C(C)C)cc1OC` [Compound 33], the IC50 in assay [1] was 631 nM; in assay [2], greater than 10 µM. Moreover, in assay [1], the “Selectivity P2X3/P2X2/3” value is reported as greater than 15.

As for `CNc1nc(N)ncc1Oc1cc(OC)c(OC)cc1C(C)C` [Compound 34], in assay [1], the IC50 is 1580 nM and the “Selectivity P2X3/P2X2/3” value is greater than 6.4. The IC50 in assay [2] is greater than 10 µM.

In the case of `COc1cc(Oc2cnc(N)nc2NC(C)C)c(C(C)C)cc1OC` [Compound 35], the results for the IC50 in assay [1] and in assay [2] were 3980 nM and greater than 10 µM, respectively. For the same molecule, the “Selectivity P2X3/P2X2/3” value in assay [1] is recorded as greater than 2.5.

Turning to `COCCNc1nc(N)ncc1Oc1cc(OC)c(OC)cc1C(C)C` [Compound 36], the IC50 in assay [1] is 1000 nM; in assay [2] it was greater than 10 µM. Also, the “Selectivity P2X3/P2X2/3” value in assay [1] is listed as greater than 10.

As to `COc1cc(Oc2cnc(N)nc2NCCO)c(C(C)C)cc1OC` [Compound 37], the IC50 was 1000 nM in assay [1] and greater than 10 µM in assay [2]. The “Selectivity P2X3/P2X2/3” value in assay [1] is recorded as greater than 10.

`COc1cc(Oc2cnc(N)nc2NCCN(C)C)c(C(C)C)cc1OC` [Compound 38]: the IC50 in assay [1] is 158 nM; in assay [2], 2.51 µM. Besides, in assay [1], the “Selectivity P2X3/P2X2/3” value amounted to 17.

As to `COc1cc(Oc2cnc(N)nc2NC2CCN(C)CC2)c(C(C)C)cc1OC` [Compound 39], in assay [1], the IC50 is 316 nM and the “Selectivity P2X3/P2X2/3” value turned out to be 20. Also, the IC50 in assay [2] is 6.31 µM.

For the molecule `COc1cc(Oc2cnc(N)nc2NC2CCOCC2)c(C(C)C)cc1OC` [Compound 40], the IC50 in assay [1] was 1260 nM; in assay [2], greater than 10 µM. Besides, in assay [1], the “Selectivity P2X3/P2X2/3” value was greater than 8.

Take `COc1cc(Oc2cnc(N)nc2NCCS(C)(=O)=O)c(C(C)C)cc1OC` [Compound 41]: in assay [1], the IC50 is 398 nM and the “Selectivity P2X3/P2X2/3” value is greater than 27. Further, the IC50 in assay [2] is greater than 10 µM.

Consider `COc1cc(Oc2cnc(N)nc2Nc2ccccc2)c(C(C)C)cc1OC` [Compound 42], for which the IC50 in assay [1] was 1000 nM; in assay [2], greater than 10 µM. Further, in assay [1], the “Selectivity P2X3/P2X2/3” value is recorded as greater than 10.

On to `COc1cc(Oc2cnc(N)nc2Nc2ccccn2)c(C(C)C)cc1OC` [Compound 43], for which, in assay [1], the IC50 was 1580 nM and the “Selectivity P2X3/P2X2/3” value is given as greater than 5.6. Besides, the IC50 in assay [2] was greater than 10 µM.

`COc1cc(Oc2cnc(N)nc2Nc2cnccn2)c(C(C)C)cc1OC` [Compound 44]: in assay [1], the IC50 is 1000 nM and the “Selectivity P2X3/P2X2/3” value is on record as greater than 10. Besides, in assay [2], the IC50 was greater than 10 µM.

Consider `COc1cc(Oc2cnc(N)nc2Nc2cccnn2)c(C(C)C)cc1OC` [Compound 45], for which, in assay [1], the IC50 is 3160 nM and the “Selectivity P2X3/P2X2/3” value stood at 3.5. The IC50 in assay [2] is greater than 10 µM.

Regarding `COc1cc(Oc2cnc(N)nc2NCc2ccccc2)c(C(C)C)cc1OC` [Compound 46], in assay [1], the IC50 was 631 nM and the “Selectivity P2X3/P2X2/3” value is given as 4.8. Further, in assay [2], the IC50 was 3.16 µM.

With `COc1cc(Nc2cnc(N)nc2N)c(C(C)C)cc1OC` [Compound 47], the IC50 in assay [1] was 49 nM; in assay [2], 1.38 µM.

Take `COc1cc(C(C)C)c(Oc2cnc(N)nc2NCCO)cc1I` [Row A, R = I]: the “Selectivity, R = I” value with P2X3 [3] is on record as 1.6. The “P2X3 mean pIC50, R = I” value in the assay with P2X3 [4] was 8.0. Moreover, on P2X2/3, the “P2X2/3 mean pIC50, R = I” value is listed as 7.8.

On to `COc1cc(Oc2cnc(N)nc2N)c(C(C)C)cc1OC` [Row A, X = O], for which the “P2X3 mean pIC50, X = O” value with P2X3 [5] was 7.6.

As to `COc1cc(C(C)C)c(Oc2cnc(N)nc2NCC(O)CO)cc1I` (stereo not drawn) [Row B, R = I], the “Selectivity, R = I” value with P2X3 [3] is 4.0. Moreover, the “P2X3 mean pIC50, R = I” value in the assay on P2X3 [4] is reported as 8.1. For the same molecule, the “P2X2/3 mean pIC50, R = I” value on P2X2/3 is 7.5.

Take `COc1cc(C(C)C)c(Oc2cnc(N)nc2N)cc1I` [Row B, X = O]: the “P2X3 mean pIC50, X = O” value in the assay with P2X3 [5] is listed as 8.0. Besides, the “Selectivity, X = O” value in the assay with P2X3 [6] is 8.

As to `COc1cc(C(C)C)c(Oc2cnc(N)nc2NC(CO)CO)cc1I` [Row C, R = I], in the assay on P2X3 [3], the “Selectivity, R = I” value turned out to be 2.5. Moreover, in the assay on P2X3 [4], the “P2X3 mean pIC50, R = I” value is given as 8.7. In addition, at P2X2/3, the “P2X2/3 mean pIC50, R = I” value is 8.3.

Consider `COc1cc(C(C)C)c(Oc2cnc(N)nc2N)cc1S(C)(=O)=O` [Row C, X = O], for which the “P2X3 mean pIC50, X = O” value in the assay on P2X3 [5] is recorded as 7.0. Further, the “Selectivity, X = O” value in the assay on P2X3 [6] is 10.

Consider `COc1cc(C(C)C)c(Oc2cnc(N)nc2N)cc1Cl` [Row D, X = O], for which, in the assay on P2X3 [5], the “P2X3 mean pIC50, X = O” value is 7.6. The “Selectivity, X = O” value in the assay on P2X3 [6] (Table 3A, oxygen-linked, ratio from the Carter et al pIC50s) is recorded as 4.
